{"source": "patent US20120135078A1", "about": "“ANGINA TREATMENT” (University of Dindee, priority 2009, published 2012)", "key": {"[1]": {"tested_on": "patients with chronic stable angina", "test": "Treadmill exercise tolerance test (full Bruce protocol), randomised double-blind placebo-controlled cross-over study", "type": "in vivo, human", "description": "The trial was carried out at Ninewells Hospital, UK. It was approved by the Fife, Forth Valley and Tayside Research Ethics Committee and was conducted in accordance with the Declaration of Helsinki. Signed, written informed consent was obtained from each participant.\nIndividuals aged 18 to 85 years were eligible if they had angiographically documented coronary artery disease, a positive exercise tolerance test (ETT) and a history of symptoms of chronic, stable, effort-induced angina for ≧2 months. Concomitant antianginal medication was allowed.\nExclusion criteria included myocardial infarction ≧2 months, coronary revascularization (percutaneous or CABG) ≧6 months, Left Ventricular Ejection Fraction <45%, estimated GFR <45 ml/min, significant valvular pathology, already on allopurinol, atrial arrhythmias or ECG abnormalities interfering with ST-segment interpretation.\nEligible participants had to manifest ischaemia (ST depression ≧1mm compared to resting ECG) on both visits with a between visit difference in time to ST depression of less than 15%. Otherwise, a third ETT was performed and there had to be a difference of less than 15% between the second and third test.\n(§1) Eligible participants were then randomised to either allopurinol up to 300 mg BID or matching placebo for 6 weeks. The dose of allopurinol started at 100 mg OD for the first week, 300 mg OD for the second week and 300 mg BID for the remaining treatment period.\nThe ECG analysis was performed by two independent observers who were both blind to the treatments. The results of each assessment were virtually identical.\n(§2) A p value <0.05 was considered significant."}, "[2]": {"test": "Serum analysis (biochemical data) in the cross-over study", "type": "in vivo, human", "conditions": "mean ± SD; after allopurinol treatment; p<0.001 vs baseline and placebo", "description": "as §1, §2"}, "[3]": {"conditions": "cited from earlier work"}, "[4]": {"tested_on": "patients with chronic stable angina", "test": "Haemodynamic responses during exercise testing"}, "angina patients": {"tested_on": "angina patients", "conditions": "references 1-7; cited from earlier work"}, "[5]": {"conditions": "median, after 6 weeks allopurinol up to 300 mg BID (600 mg/day) added to existing anti-anginal medication"}, "[6]": {"conditions": "mean ± SD, Stage 1 of Bruce protocol"}}}
{"smiles": "Oc1ncnc2[nH]ncc12", "note": "[Allopurinol, 1,5-dihydro-4H-pyrazolo[3,4-d]pyrimidin-4-one]", "values": [{"measurement": "absolute increase in median time to ST depression", "setting": "[1]; allopurinol vs baseline", "result": 66, "unit": "s"}, {"measurement": "increase in median time to ST depression (percent)", "setting": "[1]; allopurinol vs baseline", "result": 28, "unit": "%"}, {"measurement": "median exercise time higher on allopurinol than on placebo or baseline", "setting": "[1]; difference of medians", "result": "86 to 92", "unit": "s"}, {"measurement": "median exercise time higher on allopurinol than on placebo or baseline (percent)", "setting": "[1]; difference of medians", "result": 30, "unit": "%"}, {"measurement": "increase in time to ST depression by geometric mean", "setting": "[1]; geometric mean", "result": 22, "unit": "%"}, {"measurement": "Time to ST Depression", "setting": "[1]; [5]", "result": 298, "unit": "s"}, {"measurement": "Total Exercise Time", "setting": "[1]; [5]", "result": 393, "unit": "s"}, {"measurement": "Time to Symptoms", "setting": "[1]; median, after 6 weeks allopurinol up to 300 mg BID added to existing anti-anginal medication", "result": 304, "unit": "s"}, {"measurement": "serum uric acid", "setting": "[2]", "result": "0.14 ± 0.05", "unit": "mmol/L"}, {"measurement": "solubility in chloroform and in ether", "setting": "[3]; chloroform, ether", "result": "practically insoluble"}, {"measurement": "solubility in dilute solutions of alkali hydroxides", "setting": "[3]; dilute solutions of alkali hydroxides", "result": "dissolves"}, {"measurement": "solubility in water and alcohol", "setting": "[3]; water and alcohol", "result": "only slightly soluble"}, {"measurement": "systolic blood pressure change at the end of the first stage of the Bruce protocol", "setting": "[4]; change from baseline, p=0.026 vs placebo", "result": "−6.1", "unit": "mmHg"}, {"measurement": "HR Stage 1", "setting": "[4]; [6]", "result": "95.6 ± 13.5", "unit": "bpm"}, {"measurement": "RPP (Rate Pressure Product) Stage 1", "setting": "[4]; [6]", "result": "12756 ± 2798", "unit": "bpm · mmHg"}, {"measurement": "dBP Stage 1", "setting": "[4]; [6]", "result": "71.7 ± 10.1", "unit": "mmhg"}, {"measurement": "sBP Stage 1", "setting": "[4]; [6]", "result": "135.5 ± 19.3", "unit": "mmHg"}, {"measurement": "HR Peak exercise", "setting": "[4]; mean ± SD, peak exercise", "result": "118.5 ± 15.2", "unit": "bpm"}, {"measurement": "RPP (Rate Pressure Product) Peak Exercise", "setting": "[4]; mean ± SD, peak exercise", "result": "18842 ± 3791", "unit": "bpm · mmHg"}, {"measurement": "dBP Peak Exercise", "setting": "[4]; mean ± SD, peak exercise", "result": "75.4 ± 11.9", "unit": "mmhg"}, {"measurement": "sBP Peak exercise", "setting": "[4]; mean ± SD, peak exercise", "result": "158.7 ± 22.4", "unit": "mmHg"}, {"measurement": "HR Resting", "setting": "[4]; mean ± SD, resting", "result": "63.8 ± 8.6", "unit": "bpm"}, {"measurement": "RPP (Rate Pressure Product) Resting", "setting": "[4]; mean ± SD, resting", "result": "7910 ± 1577", "unit": "bpm · mmHg"}, {"measurement": "dBP Resting", "setting": "[4]; mean ± SD, resting", "result": "72.2 ± 9.9", "unit": "mmhg"}, {"measurement": "sBP Resting", "setting": "[4]; mean ± SD, resting", "result": "123.7 ± 16.2", "unit": "mmHg"}]}
{"smiles": "CC(C)NCC(O)COc1ccc(CC(N)=O)cc1", "note": "(stereo not shown) [atenolol]", "values": [{"measurement": "increase in time to ST depression, comparable published figures", "setting": "angina patients", "result": "around 50 seconds"}, {"measurement": "increase in time to ST depression, comparable published figures (percent)", "setting": "angina patients", "result": 15, "unit": "%"}]}
{"smiles": "COc1cc2c(cc1OC)CC(=O)N(CCCN(C)C[C@H]1Cc3cc(OC)c(OC)cc31)CC2", "note": "[ivabradine]", "values": [{"measurement": "increase in time to ST depression, comparable published figures", "setting": "angina patients", "result": 46, "unit": "s"}, {"measurement": "increase in time to ST depression, comparable published figures (percent)", "setting": "angina patients", "result": 13.5, "unit": "%"}]}
{"smiles": "COc1ccccc1OCC(O)CN1CCN(CC(=O)Nc2c(C)cccc2C)CC1", "note": "(stereo not shown) [ranolazine]", "values": [{"measurement": "increase in time to ST depression, comparable published figures", "setting": "angina patients", "result": "around 50 seconds"}, {"measurement": "increase in time to ST depression, comparable published figures (percent)", "setting": "angina patients", "result": 15, "unit": "%"}]}
